Like-named read-outs stand apart in the source and are kept apart here.
Columns and labels:
[1] = target: human liver cytochrome bc1 complex (Homo sapiens, UniProt P00156); parameters: method as in Nilsen et al., 2013; settings: ref Nilsen et al., 2013; cited from earlier work
[2] = tested on: P. falciparum ELQ-300-resistant D1 clone; assay: microbe, parasite or virus in culture; format: cell-based; settings: Plasmodium falciparum, 72 h, read-out: P. falciparum IC50 values, D1
[3] = tested on: P. yoelii blood-stage infection; settings: mice; for blood stage in vivo efficacy, 4 day Peters test results, NRD (nonrecrudescence dose): oral gavage days 1-4, followed to day 30
Protocol: (§1) On day 5, a drop of blood was taken from the tail, and a blood smear was prepared, fixed with methanol, and stained with Giemsa. The operator then examined the stained smear microscopically to determine percent parasitemia. […] In this model, animals were inoculated exactly as for the 4 day test on day 0; however, drug was administered only on day 1, whereas smears were made on day 5 and again weekly thereafter for animals that remained aparasitemic. Animals that remained aparasitemic on day 30 were scored as cures.
The P. yoelii 4 day test monitors suppression of patent infection in female CF1 mice. The test began with the inoculation (iv) of parasitized erythrocytes (3.5 × 10^4P. yoelli) (from a donor animal) on the first day of the experiment (D0). […] Initially, the 3-biaryl-ELQs were tested at doses of 0.0025, 0.005, 0.01, 0.03, 0.1, 0.3, 1.0, and 10 mg/kg/day, including a vehicle-only (PEG400) control. After completion of drug treatment, a blood sample was collected (by pricking the tail vein) for determination of parasite burden beginning on the day after the final dose (D5). Percent parasitemia was assessed by direct microscopic analysis of Giemsa-stained blood smears. […] Animals with observable parasitemia following the experiment were euthanized; animals cleared of parasites from the bloodstream were observed daily with assessment of parasitemia performed weekly until day 30, at which point the animals were scored as cured of infection. […] Nonlinear regression analysis was used for objective determination of ED50’s and ED90’s from the accumulated data as well as the nonrecrudescence dose (NRD). The 4 day test protocol was reviewed and approved by the local IACUC board at the Portland VA Medical Center. Experiments were performed with four mice per group to ensure statistical accuracy.

[4] = tested on: P. yoelii blood-stage infection; assay: Single-dose cure of blood-stage murine malaria; format: in vivo, Plasmodium yoelii; settings: lowest single oral dose curing all four mice, day 30
Protocol: as §1
The effectiveness of selected 3-biaryl ELQs and prodrugs was assessed vs the blood-stage infection for single-dose cures. Mice were infected iv with 3.5 × 10^4P. yoelii infected RBCs as described for the 4 day test above. Drug administration occurred on the day after inoculation (day 1). Test agents were dissolved in PEG-400 and administered ig once. On the fifth day, blood films were prepared, and % parasitemia was assessed. Animals remaining parasite-free for 30 days after drug administration were considered cured. The initial dosing range was 0.25, 0.5, 1, 3, and 10 mg/kg, including a control. Experiments were performed with four mice per group to ensure statistical accuracy. The reported parameter for these studies is the lowest single dose that provides a cure to all four animals in the group.

[5] = tested on: P. falciparum multidrug-resistant Dd2 strain; assay: microbe, parasite or virus in culture; format: cell-based; settings: Plasmodium falciparum, DD2, 72 h, read-out: P. falciparum IC50 values, Dd2
Protocol: (§2) All of this information is stored in a database with information relating to chemical structure, physical chemical properties, cross resistance patterns, mammalian cell cytotoxicity, enzyme inhibitor profiles, and synthesis details. Pharmacological data and in vivo efficacy data are also stored in the database for molecules of particular interest. […] We synthesized the compound in an initial batch size of about 800 mg as described above. […] Fluorescence readings were captured with a fluorescence plate reader and processed by nonlinear regression analysis using the GraphPad Prism software to provide IC50 values for each determination. Stock solutions were freshly prepared daily in DMSO in glass vials.
(§3) Laboratory strains of P. falciparum were cultured in human erythrocytes by standard methods. The parasites were grown in culture medium with fresh human erythrocytes maintained at 2% hematocrit at 37 °C in low-oxygen conditions (5% O2, 5% CO2, 90% N2). […] Cultures were maintained at less than 10% parasitemia by transfer of infected cells to fresh erythrocytes and culture medium every 3 or 4 days.
(§4) SYBR green I assay. In vitro antiplasmodial activity was assessed using a published SYBR Green I fluorescence-based method.[20] The drugs were added to 96-well plates using twofold serial dilutions in complete medium. […] Asynchronous P. falciparum parasites were diluted with uninfected erythrocytes and added to the wells to give a final culture volume of 100 μL at 2% hematocrit and 0.2% parasitemia. […] The parasites were then lysed by adding 100 μL of SYBR green I lysis buffer containing 0.2 μL/ml SYBR green I dye (10,000×) in 20 mM Tris (pH 7.5), 5 mM EDTA, 0.008% (wt/vol) saponin, and 0.08% (v/v) Triton X-100. The plates were incubated at room temperature for an hour in the dark. […] If the IC50 value fell outside of the initially tested range, then the range was adjusted up or down, and the assay was repeated twice.

[6] = tested on: P. falciparum atovaquone-resistant clinical isolate Tm90-C2B; assay: SYBR Green I antiplasmodial assay, Tm90-C2B; format: cell-based; settings: Plasmodium falciparum, read-out: P. falciparum IC50 values, Tm90-C2B
Protocol: as §2, §3, §4

[7] = tested on: P. falciparum drug-sensitive D6 strain; assay: SYBR Green I antiplasmodial assay, D6 strain; format: cell-based; settings: Plasmodium falciparum, read-out: P. falciparum IC50 values, D6
Protocol: as §2, §3, §4

[8] = ELQ-300, active metabolite of ELQ-331; comparison value, no reference given; cited from earlier work
[9] = HepG2 cytotoxicity / mitochondrial toxicity (TiterGlo ATP, galactose medium); settings: human, HepG2 cells
Protocol: HepG2 was routinely cultured in DMEM containing 10% fetal calf serum and 100 IU/mL penicillin and 100 μg/mL streptomycin (complete medium). For studies to investigate the potential for mitochondrial toxicity by selected 3-biaryl-ELQs, the medium contained galactose rather than glucose to force the cells to produce ATP through oxidative phosphorylation, which in turn makes them sensitive to mitochondrial toxicants.[36] […] After this period, the culture medium was removed, and the cells were shifted to galactose-containing medium with test drugs at concentrations ranging from 0 to 10 μM. Drug dilutions were prepared from DMSO stocks into galactose-containing medium. […] After incubation, the contents of each well were removed, and 25 μL of TiterGlo II reagent mix containing luciferase, detergent, and luciferin was added to each well along with 25 μL of culture medium. […] At this point, the plates were read on a luminometer (SpectraMax iD3 iD5Multi-Mode Microplate Reader), and the data were processed to yield the percent decrease in ATP production relative to no-drug control values. These values reflect the potential damage caused by mitochondrial toxicants due to reduced intracellular ATP levels caused by interference with the human mitochondrial electron transport chain. Assays were set up in triplicate.

[10] = earlier work of the authors, no reference given; cited from earlier work
[11] = tested on: P. falciparum atovaquone-resistant clinical isolate Tm90-C2B; settings: earlier work of the authors, no reference given; cited from earlier work
[12] = tested on: P. falciparum multidrug-resistant Dd2 strain; settings: earlier work of the authors, no reference given; cited from earlier work
[13] = tested on: P. falciparum drug-sensitive D6 strain; settings: earlier work of the authors, no reference given; cited from earlier work
[14] = oral gavage days 1-4, parasitemia day 5, prodrugs dosed on molar equivalency to parent

Row | SMILES | EC50 [1] [nM] | IC50 [2] [nM] | blood stage in vivo efficacy, 4 day Peters test results, NRD (nonrecrudescence dose) [3] [mg/kg/day] | blood stage in vivo efficacy, 4 day Peters test results, ED50 [3, 14] [mg/kg/day] | blood stage in vivo efficacy, single dose cure [4] [mg/kg/day] | IC50 [5] [nM] | IC50 ([6]; TM90, 72 h, SYBR Green, mean (95% confidence interval of fit)) [nM] | IC50 ([7]; D6, 72 h, SYBR Green, mean (95% confidence interval of fit)) [nM] | blood stage in vivo efficacy, 4 day Peters test results, ED90 [3, 14] [mg/kg/day] | elimination T1/2 [8] [h] | IC50 ([6]; TM90, 72 h) [nM] | IC50 at 24 h [9] [nM] | IC50 ([7]; D6, 72 h) [nM] | metabolic stability [10] | IC50 [11] [nM] | IC50 [12] [nM] | IC50 [13] [nM]
1 | O=C1C(O)=C([C@H]2CC[C@H](c3ccc(Cl)cc3)CC2)C(=O)c2ccccc21 [Atovaquone, reference compound] | 460 | 0.4 | 10 | 0.1 | 10 | 0.4 | > 1000 | 0.08 |  |  |  |  |  |  |  |  | 
2 | COc1cc2[nH]c(C)c(-c3ccc(Oc4ccc(OC(F)(F)F)cc4)cc3)c(=O)c2cc1Cl [ELQ-300] | > 10000 |  | 1.0 | 0.02 | >25 | 4.2 |  |  | 0.06 | 14.6 | 2.5 | > 10000 | 3.3 |  |  |  | 
3 | COc1cc2[nH]c(C)c(-c3ccc(Oc4cccc(OC(F)(F)F)c4)cc3)c(=O)c2cc1Cl [ELQ-307] |  |  |  |  |  |  |  |  |  |  |  |  |  | metabolically unstable | ≤ 0.03 | ≤ 0.03 | ≤ 0.03

Reference: publication PMC11245370, “3-Position Biaryl Endochin-like Quinolones with Enhanced Antimalarial Performance” (ACS Infectious Diseases, 2024)
